Test results from ChEMBL document CHEMBL1201862, “PubChem BioAssay data set” (2004).
Active and inactive are the calls of the source.

How the values were obtained:
INS1 = test: INS-1E survival protection against cytokine death – cell-based, luminescence, retest, dose response (AID 449756); assay type: functional; conditions: Rattus norvegicus;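 note: cell death triggered by IL-1 beta plus TNF-alpha plus IFN-gamma mixture; protective hits raise ATP signal compared with cytokine alone wells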
[1] = viability loss in human Jurkat cells – cell-based, luminescence, cytotoxicity control for P. falciparum gametocyte viability project, dose response (AID 1117277); assay type: functional;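 note: potency reflects loss of cellular ATP meaning fewer viable cells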
[2] = target: T1, Microphthalmia-associated transcription factor (Homo sapiens, UniProt O75030); test: reducers of TRPM1 reporter luminescence, concentration series – cell-based, SK-MEL-5, cherry-picked, set 3, MITF inhibitor project, dose response (AID 493073); assay type: functional;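 note: SK-MEL-5 melanoma cells with luciferase driven by the MITF target TRPM1 promoter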
T1 sequence (O75030 whole entry): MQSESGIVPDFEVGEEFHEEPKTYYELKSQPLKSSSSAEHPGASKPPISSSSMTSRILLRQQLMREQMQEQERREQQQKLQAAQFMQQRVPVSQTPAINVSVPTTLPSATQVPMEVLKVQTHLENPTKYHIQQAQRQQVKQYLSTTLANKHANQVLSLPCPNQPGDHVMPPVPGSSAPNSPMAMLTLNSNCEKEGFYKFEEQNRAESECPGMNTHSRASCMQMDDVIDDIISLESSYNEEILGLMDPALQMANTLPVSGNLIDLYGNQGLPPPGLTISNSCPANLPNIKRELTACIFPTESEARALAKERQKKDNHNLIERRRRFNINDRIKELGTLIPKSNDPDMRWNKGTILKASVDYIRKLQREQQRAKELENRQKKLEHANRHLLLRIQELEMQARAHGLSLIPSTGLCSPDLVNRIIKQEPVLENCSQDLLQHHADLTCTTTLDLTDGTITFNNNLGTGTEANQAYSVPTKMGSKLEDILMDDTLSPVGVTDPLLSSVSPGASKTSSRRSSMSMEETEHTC

[3] = viability inhibitors of stage V gametocytes – luminescence, dose response (AID 1117278); assay type: functional, cell-based;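 note: gametocytes exposed to compound for 24 hours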
[4] = concentration-dependent intrinsic compound fluorescence, S. cerevisiae AD/pABC3, flow cytometry, Cherry Pick1 hits, artefact control for antifungal efflux pump inhibitor project, dose response (AID 588620); assay type: functional
Protein Wnt-3a = Protein Wnt-3a (Mus musculus, UniProt P27467); test: antagonism of Wnt3a pathway luciferase reporter – Wnt-LIGHT cells, luminescence, selectivity assay for Gli-SUFU antagonist project, dose response (AID 651570); assay type: functional; conditions: read-out: IC50_Mean;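 note: Wnt-LIGHT reporter cells stimulated with conditioned medium from Wnt3a-producing cells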
Chain of Protein Wnt-3a (P27467 whole entry): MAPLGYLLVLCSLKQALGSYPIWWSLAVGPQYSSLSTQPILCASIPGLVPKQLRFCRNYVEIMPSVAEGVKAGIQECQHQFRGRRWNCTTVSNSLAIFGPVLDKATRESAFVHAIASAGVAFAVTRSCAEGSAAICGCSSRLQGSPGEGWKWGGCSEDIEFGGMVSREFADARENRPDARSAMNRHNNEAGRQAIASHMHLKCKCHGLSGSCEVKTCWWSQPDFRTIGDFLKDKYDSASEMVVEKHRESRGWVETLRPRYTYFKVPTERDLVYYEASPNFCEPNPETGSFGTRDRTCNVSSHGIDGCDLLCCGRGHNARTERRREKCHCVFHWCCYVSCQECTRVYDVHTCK

Candida albicans = test: Candida growth effect without fluconazole – C. albicans CaCi-2, dry powder, counter-screen for antifungal drug resistance project, dose response (AID 488802); assay type: functional, organism-based
Caspase-3 = target: T2, Caspase-3 (Homo sapiens, UniProt P42574); test: inhibition of recombinant caspase-3 activity – biochemical, luminescence, set 2, selectivity assay for SENP protease inhibitor project, SAR follow-up (AID 588599); assay type: functional
T2 sequence (P42574 whole entry): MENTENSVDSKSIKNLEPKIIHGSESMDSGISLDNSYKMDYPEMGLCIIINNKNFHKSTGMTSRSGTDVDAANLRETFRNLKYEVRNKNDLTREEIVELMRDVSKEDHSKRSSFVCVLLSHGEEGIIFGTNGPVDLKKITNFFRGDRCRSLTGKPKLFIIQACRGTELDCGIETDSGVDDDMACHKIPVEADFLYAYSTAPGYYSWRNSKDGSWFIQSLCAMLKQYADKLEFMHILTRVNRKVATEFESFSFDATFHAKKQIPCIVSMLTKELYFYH

[5] = target: T3, Sentrin-specific protease 8 (Homo sapiens, UniProt Q96LD8); test: inhibition of sentrin protease 8 – biochemical, luminescence, set 2, SAR follow-up (AID 588601); assay type: functional
T3 sequence (Q96LD8 whole entry): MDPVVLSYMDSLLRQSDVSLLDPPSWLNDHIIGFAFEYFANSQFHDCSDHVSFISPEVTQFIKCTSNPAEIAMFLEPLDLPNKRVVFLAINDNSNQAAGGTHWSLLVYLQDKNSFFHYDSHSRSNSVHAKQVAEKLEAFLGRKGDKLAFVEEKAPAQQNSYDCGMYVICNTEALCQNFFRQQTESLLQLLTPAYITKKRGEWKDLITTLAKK

[6] = target: T4, Sentrin-specific protease 7 (Homo sapiens, UniProt Q9BQF6); test: inhibition of human SENP7 cleavage activity – biochemical, luminescence, set 2, SAR follow-up (AID 588600); assay type: functional
T4 sequence (Q9BQF6 whole entry): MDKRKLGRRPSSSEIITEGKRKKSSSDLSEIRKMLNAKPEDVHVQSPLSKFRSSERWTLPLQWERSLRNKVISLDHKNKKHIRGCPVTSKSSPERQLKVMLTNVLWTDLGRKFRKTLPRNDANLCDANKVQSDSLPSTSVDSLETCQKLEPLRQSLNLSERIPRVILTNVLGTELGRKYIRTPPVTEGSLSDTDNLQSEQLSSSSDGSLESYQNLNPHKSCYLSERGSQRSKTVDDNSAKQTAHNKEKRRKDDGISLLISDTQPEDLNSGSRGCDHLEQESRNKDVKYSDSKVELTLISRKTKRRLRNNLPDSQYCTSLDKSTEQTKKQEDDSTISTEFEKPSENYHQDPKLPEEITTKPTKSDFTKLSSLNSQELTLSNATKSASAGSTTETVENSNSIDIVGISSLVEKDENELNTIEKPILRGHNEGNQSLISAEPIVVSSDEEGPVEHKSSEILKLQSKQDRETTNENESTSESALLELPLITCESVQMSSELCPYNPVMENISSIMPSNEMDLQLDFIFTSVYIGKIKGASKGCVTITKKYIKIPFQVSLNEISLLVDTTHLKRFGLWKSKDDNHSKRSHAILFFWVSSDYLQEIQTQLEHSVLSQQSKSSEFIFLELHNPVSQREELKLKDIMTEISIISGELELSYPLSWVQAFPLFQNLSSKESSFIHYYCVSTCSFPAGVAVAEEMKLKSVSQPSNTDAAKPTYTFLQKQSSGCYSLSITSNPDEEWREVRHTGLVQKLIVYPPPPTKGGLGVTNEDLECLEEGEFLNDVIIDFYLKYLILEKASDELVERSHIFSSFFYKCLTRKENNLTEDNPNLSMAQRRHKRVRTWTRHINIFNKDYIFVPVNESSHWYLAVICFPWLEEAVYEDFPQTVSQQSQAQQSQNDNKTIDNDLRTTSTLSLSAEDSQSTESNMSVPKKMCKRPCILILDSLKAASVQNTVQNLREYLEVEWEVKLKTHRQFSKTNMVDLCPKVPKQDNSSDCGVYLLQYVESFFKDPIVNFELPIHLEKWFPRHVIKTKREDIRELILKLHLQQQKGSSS

[7] = target: T5, Sentrin-specific protease 6 (Homo sapiens, UniProt Q9GZR1); test: inhibition of human SENP6 catalytic domain – biochemical, luminescence, set 2, SAR follow-up (AID 588598); assay type: functional
T5 sequence (Q9GZR1 whole entry): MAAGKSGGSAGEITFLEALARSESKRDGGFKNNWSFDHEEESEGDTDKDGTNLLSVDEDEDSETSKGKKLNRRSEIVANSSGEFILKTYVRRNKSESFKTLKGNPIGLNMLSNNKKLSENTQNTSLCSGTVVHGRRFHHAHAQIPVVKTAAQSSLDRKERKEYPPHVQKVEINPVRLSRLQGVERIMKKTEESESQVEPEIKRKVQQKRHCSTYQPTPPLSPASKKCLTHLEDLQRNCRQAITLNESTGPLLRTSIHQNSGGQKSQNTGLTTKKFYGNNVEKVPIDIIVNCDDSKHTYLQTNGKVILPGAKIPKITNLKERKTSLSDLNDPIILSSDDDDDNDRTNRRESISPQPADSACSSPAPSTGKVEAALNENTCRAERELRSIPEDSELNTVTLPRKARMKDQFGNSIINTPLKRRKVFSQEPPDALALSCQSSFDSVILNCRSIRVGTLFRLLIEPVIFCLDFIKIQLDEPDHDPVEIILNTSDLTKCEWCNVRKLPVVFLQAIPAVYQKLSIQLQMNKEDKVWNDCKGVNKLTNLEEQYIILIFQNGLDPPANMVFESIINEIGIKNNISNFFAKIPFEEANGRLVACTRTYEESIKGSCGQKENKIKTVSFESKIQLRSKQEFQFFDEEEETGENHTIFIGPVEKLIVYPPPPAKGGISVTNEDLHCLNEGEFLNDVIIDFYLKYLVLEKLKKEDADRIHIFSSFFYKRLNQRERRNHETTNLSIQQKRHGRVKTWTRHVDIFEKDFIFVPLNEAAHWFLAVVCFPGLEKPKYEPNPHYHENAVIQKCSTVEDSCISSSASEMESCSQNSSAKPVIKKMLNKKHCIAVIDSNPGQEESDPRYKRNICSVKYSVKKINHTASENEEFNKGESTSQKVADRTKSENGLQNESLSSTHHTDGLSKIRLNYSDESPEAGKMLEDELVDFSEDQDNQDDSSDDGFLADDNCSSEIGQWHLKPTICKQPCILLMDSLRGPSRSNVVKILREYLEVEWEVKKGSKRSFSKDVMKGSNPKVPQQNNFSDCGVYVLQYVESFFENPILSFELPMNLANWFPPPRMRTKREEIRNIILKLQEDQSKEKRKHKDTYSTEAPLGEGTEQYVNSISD

With Cc1ccc(-c2c[n+](Cc3ccc(Cl)c(Cl)c3)c3n2CCC3)cc1 the AC50 (INS1) was 3.4 µM (active), the IC50 [1] was 43.6 µM (inactive) and the AC50 [2] was 3.74 µM (active). For the same molecule, the IC50 [3] was > 109 µM (inactive), the EC50 [4] was 43.6 µM (active) and the IC50 (Protein Wnt-3a) was 24.5 µM (inactive).
With Cc1nn(S(C)(=O)=O)c2ccccc12 the AC50 (Candida albicans) was 46.7 µM (active).
With O=C(Nc1nc2ccc(SC(F)F)cc2s1)c1cn(-c2ccccc2)nc1-c1ccc(Cl)cc1 the IC50 (Caspase-3) was > 99 µM (inactive), the IC50 [5] was > 99 µM (inactive) and the IC50 [6] was > 99 µM (inactive). For the same molecule, the IC50 [7] was > 99 µM (inactive).
